Data from patent US8841462B2, “Bicyclic heterocycles as MEK kinase inhibitors” (priority 2008, dated 2014).

What was measured:
[1] = tested on: HCT116 human colorectal carcinoma; assay: Cell proliferation assay, HCT116; assay type: cell-based; settings: HCT-116, HCT116, 72h exposure, CellTiter-Glo, read-out: EC50 in the cell proliferation assay, HCT116 cell line
Description: (§1) Compounds are tested in a cell proliferation assay using the following cell lines:
(§2) HCT116 human colorectal carcinoma (ATCC)
(§3) Both cell lines are maintained in DMEM/F12 (1:1) media (Gibco) supplemented with 10% FCS at 37° C. in a 5% CO2 humidified incubator.
(§4) Cells are seeded in 96-well plates at 2,000 cells/well and after 24 hours they are exposed to different concentrations of compounds in 0.83% DMSO. Cells are grown for a further 72h, and an equal volume of CellTiter-Glo reagent (Promega) is added to each well. This lyses the cells and generates a luminescent signal proportional to the amount of ATP released (and therefore proportional to the number of cells in the well) that can be detected using a multi-well luminometer.
(§5) The EC50 is defined as the concentration at which a given compound achieves 50% inhibition of control. IC50 values are calculated using the XLfit software package (version 2.0.5).

[2] = tested on: A375 human malignant melanoma; assay: Cell proliferation assay, A375; assay type: cell-based; settings: A-375, A375, 72h exposure, CellTiter-Glo, read-out: EC50 in the cell proliferation assay, A375 cell line
Description: as §1
(§6) A375 human malignant melanoma (ATCC)
as §3, §4, §5

[3] = tested on: phospho-ERK in HCT116 human colorectal carcinoma; assay: Phospho-ERK cell-based assay, HCT116; settings: HCT-116, HCT116, 2 h or 24 h exposure, p-ERK signal normalised to PI, read-out: EC50 in the phospho-ERK cell-based assay, HCT116 cell line
Description: (§7) Compounds are tested in a cell-based phospho-ERK ELISA using the following cell lines:
as §2, §3
(§8) Cells are seeded in 96-well plates at 2,000 cells/well and after 24 h they are exposed to different concentrations of compounds in 0.83% DMSO. Cells are grown for a further 2 h or 24 h, fixed with formaldehyde (2% final) and permeabilised with methanol. Following blocking with TBST-3% BSA, fixed cells are incubated with primary antibody (anti-phospho ERK from rabbit) over-night at 4° C. Cells are incubated with Propidium Iodide (DNA fluorescent dye) and detection of cellular p-ERK is performed using an anti-rabbit secondary antibody conjugated to the fluorescent Alexa Fluor 488 dye (Molecular probes). The fluorescence is analysed using the Acumen Explorer (TTP Labtech), a laser-scanning microplate cytometer, and the Alexa Fluor 488 signal is normalised to the PI signal (proportional to cell number).
(§9) The EC50 is defined as the concentration at which a given compound achieves a signal half way between the baseline and the maximum response. EC50 values are calculated using the XLfit software package (version 2.0.5).

[4] = tested on: phospho-ERK in A375 human malignant melanoma; assay: Phospho-ERK cell-based assay, A375; settings: A-375, A375, 2 h or 24 h exposure, p-ERK signal normalised to PI, read-out: EC50 in the phospho-ERK cell-based assay, A375 cell line
Description: as §7, §6, §3, §8, §9

For `O=C(NOCCO)c1ccc2[nH]ncc2c1Nc1ccc(I)cc1F` [Example 5, 4-(2-Fluoro-4-iodo-phenylamino)-1H-indazole-5-carboxylic acid (2-hydroxy-ethoxy)-amide], the EC50 [1] was < 500 nM, the EC50 [2] was < 100 nM and the EC50 [3] was < 100 nM.

For `O=C(NOCCO)c1cnc2[nH]ncc2c1Nc1ccc(I)cc1F` [Example 6, 4-(2-Fluoro-4-iodophenylamino)-1H-pyrazolo[3,4-b]pyridine 5-carboxylic acid (2-hydroxyethoxy)-amide], the EC50 [1] was < 500 nM, the EC50 [2] was < 100 nM and the EC50 [3] was < 100 nM. For the same molecule, the EC50 [4] was < 100 nM.

With `C[C@H](O)CONC(=O)c1cnc2[nH]ncc2c1Nc1ccc(I)cc1F` [Example 7, 4-(2-Fluoro-4-iodophenylamino)-1H-pyrazolo[3,4-b]pyridine 5-carboxylic acid ((S)-2-hydroxypropoxy)-amide] the EC50 [1] was < 500 nM, the EC50 [2] was < 100 nM and the EC50 [3] was < 100 nM. The EC50 [4] was < 100 nM.

For `CC(C)(CO)ONC(=O)c1cnc2[nH]ncc2c1Nc1ccc(I)cc1F` [Example 8, 4-(2-Fluoro-4-iodophenylamino)-1H-pyrazolo[3,4-b]pyridine-5-carboxylic acid (2-hydroxy-1,1-dimethylethoxy)-amide], the EC50 [1] was < 600 nM, the EC50 [2] was < 100 nM and the EC50 [3] was < 100 nM. The EC50 [4] was < 100 nM.

`O=C(NOC[C@H](O)CO)c1ccc2[nH]ncc2c1Nc1ccc(I)cc1F` [Example 9, 4-(2-Fluoro-4-iodophenylamino)-1H-indazole-5-carboxylic acid ((R)-2,3-dihydroxy-propoxy)-amide] was tested, and the EC50 [1] was < 500 nM, the EC50 [2] was < 100 nM and the EC50 [3] was < 100 nM. For the same molecule, the EC50 [4] was < 100 nM.

For `O=C(NOCCO)c1ccc2[nH]ncc2c1Nc1ccc(Br)cc1F` [Example 10, 4-(4-Bromo-2-fluoro-phenylamino)-1H-indazole-5-carboxylic acid (2-hydroxy-ethoxy)-amide], the EC50 [1] was < 500 nM, the EC50 [2] was < 100 nM and the EC50 [3] was < 100 nM. The EC50 [4] was < 100 nM.

In the case of `C[C@H](O)CONC(=O)c1ccc2[nH]ncc2c1Nc1ccc(Br)cc1F` [Example 11, 4-(4-Bromo-2-fluoro-phenylamino)-1H-indazole-5-carboxylic acid ((S)-2-hydroxy-propoxy)-amide], the EC50 [1] is reported as < 500 nM, the EC50 [2] is reported as < 100 nM and the EC50 [3] is reported as < 100 nM. For the same molecule, the EC50 [4] was < 100 nM.

In the case of `O=C(NOCCO)c1ccc2sncc2c1Nc1ccc(I)cc1F` [Example 12, 4-(2-Fluoro-4-iodo-phenylamino)-benzo[d]isothiazole-5-carboxylic acid (2-hydroxy-ethoxy)-amide], the EC50 [1] is reported as < 500 nM, the EC50 [2] is reported as < 100 nM and the EC50 [3] is reported as < 100 nM. For the same molecule, the EC50 [4] was < 100 nM.

`CSc1ccc(Nc2c(C(=O)NOCCO)ccc3[nH]ncc23)c(F)c1` [Example 13, 4-(2-Fluoro-4-methylsulfanyl-phenylamino)-1H-indazole-5-carboxylic acid (2-hydroxy-ethoxy)-amide] was tested, and the EC50 [1] was < 500 nM and the EC50 [3] was < 100 nM.

For `CCONC(=O)c1ccc2[nH]ncc2c1Nc1ccc(I)cc1F` [Example 14, 4-(2-Fluoro-4-iodo-phenylamino)-1H-indazole-5-carboxylic acid ethoxy-amide], the EC50 [1] was < 500 nM, the EC50 [2] was < 100 nM and the EC50 [3] was < 100 nM. The EC50 [4] was < 100 nM.

With `O=C(NOCC1CC1)c1ccc2[nH]ncc2c1Nc1ccc(I)cc1F` [Example 16, 4-(2-Fluoro-4-iodo-phenylamino)-1H-indazole-5-carboxylic acid cyclopropylmethoxy-amide] the EC50 [3] was < 100 nM.

`CONC(=O)c1ccc2[nH]ncc2c1Nc1ccc(I)cc1F` [Example 17, 4-(2-Fluoro-4-iodo-phenylamino)-1H-indazole-5-carboxylic acid methoxy-amide] was tested, and the EC50 [1] was < 500 nM, the EC50 [2] was < 100 nM and the EC50 [3] was < 100 nM. The EC50 [4] was < 100 nM.

In the case of `C[C@H](O)CONC(=O)c1ccc2sncc2c1Nc1ccc(I)cc1F` [Example 20, 4-(2-Fluoro-4-iodo-phenylamino)-benzo[d]isothiazole-5-carboxylic acid ((S)-2-hydroxy-propoxy)-amide], the EC50 [1] is reported as < 500 nM, the EC50 [2] is reported as < 100 nM and the EC50 [3] is reported as < 100 nM. For the same molecule, the EC50 [4] was < 100 nM.

For `O=C(NOC[C@H](O)CO)c1ccc2sncc2c1Nc1ccc(I)cc1F` [Example 21, 4-(2-Fluoro-4-iodo-phenylamino)-benzo[d]isothiazole-5-carboxylic acid ((R)-2,3-dihydroxy-propoxy)-amide], the EC50 [1] was < 500 nM, the EC50 [2] was < 100 nM and the EC50 [3] was < 100 nM. For the same molecule, the EC50 [4] was < 100 nM.

`CSc1ccc(Nc2c(C(=O)NOC[C@H](O)CO)ccc3cnsc23)c(F)c1` [Example 22, 7-(2-Fluoro-4-methylsulfanyl-phenylamino)-benzo[d]isothiazole-6-carboxylic acid ((R)-2,3-dihydroxy-propoxy)-amide] was tested, and the EC50 [1] was < 500 nM, the EC50 [2] was < 100 nM and the EC50 [3] was < 100 nM. For the same molecule, the EC50 [4] was < 100 nM.

In the case of `O=C(NOC[C@H](O)CO)c1ccc2cnsc2c1Nc1ccc(C2CC2)cc1F` [Example 23, 7-(4-Cyclopropyl-2-fluoro-phenylamino)-benzo[d]isothiazole-6-carboxylic acid ((R)-2,3-dihydroxy-propoxy)-amide], the EC50 [2] is reported as < 100 nM and the EC50 [4] is reported as < 100 nM.

For `O=C(NOC[C@H](O)CO)c1ccc2cnsc2c1Nc1ccc(Br)cc1F` [Example 24, 7-(4-Bromo-2-fluoro-phenylamino)-benzo[d]isothiazole-6-carboxylic acid ((R)-2,3-dihydroxy-propoxy)-amide], the EC50 [1] was < 500 nM, the EC50 [2] was < 100 nM and the EC50 [3] was < 100 nM. For the same molecule, the EC50 [4] was < 100 nM.

For `O=C(NOCCO)c1ccc2cnsc2c1Nc1ccc(Br)cc1F` [Example 25, 7-(4-Bromo-2-fluoro-phenylamino)-benzo[d]isothiazole-6-carboxylic acid (2-hydroxy-ethoxy)-amide], the EC50 [1] was < 500 nM, the EC50 [2] was < 100 nM and the EC50 [3] was < 100 nM. For the same molecule, the EC50 [4] was < 100 nM.

With `O=C(NOCCO)c1ccc2cnsc2c1Nc1ccc(I)cc1F` [Example 26, 7-(2-Fluoro-4-iodo-phenylamino)-benzo[d]isothiazole-6-carboxylic acid (2-hydroxy-ethoxy)-amide] the EC50 [3] was < 100 nM and the EC50 [4] was < 100 nM.

`O=C(NOC[C@H](O)CO)c1ccc2cnsc2c1Nc1ccc(I)cc1F` [Example 27, 7-(2-Fluoro-4-iodo-phenylamino)-benzo[d]isothiazole-6-carboxylic acid ((R)-2,3-dihydroxy-propoxy)amide] was tested, and the EC50 [1] was < 500 nM, the EC50 [2] was < 100 nM and the EC50 [3] was < 100 nM. The EC50 [4] was < 100 nM.
